Measured values published in patent publication US20180273571A1, “CONCISE SYNTHESIS OF UREA DERIVATIVES OF AMPHOTERICIN B” (THE BOARD OF TRUSTEES OF THE UNIVERSITY OF ILLINOIS, priority 2015, published 2018).
Values after ≈ are worked out from the molar mass of the structure shown. Read-outs that look alike come from different tables or passages of the source.

Legend:
[1] = system: Saccharomyces cerevisiae; test: Broth microdilution assay (MIC) against Saccharomyces cerevisiae; assay type: cell-based; conditions: for MIC: broth microdilution, read-out: MIC S. cerevisiae
Description: (§1) With efficient access to this novel AmB chemotype, ureas AmBAU, AmBMU, and AmBCU were compared to AmB and a range of previously reported AmB derivatives in an in vitro antifungal and human cell toxicity screen. Yeast toxicity was measured with broth microdilution assays (MIC) against Saccharomyces cerevisiae. Human cell toxicity was studied by determining the amount of compound required to cause 90% hemolysis of human erythrocytes (EH90). […] Methyl esterification (AmBME) retains antifungal activity at 0.25 μM against S. cerevisiae, while decreasing hemolysis concentration to one third that seen with AmB. […] Hemolysis activity remained similar to AmBME and C41MeAmB. Bis-amino alkylated amide derivative AmBNR2 was previously shown to moderately improve the therapeutic index.
(§2) Each derivative proposed herein is tested for biological activity against both yeast and human cells to determine its therapeutic index. A broth microdilution experiment determines the MIC (minimum inhibitory concentration) of each derivative against S. cerevisiae and the clinically relevant C. albicans, thereby establishing the antifungal activity of each novel derivative. To test for toxicity against human cells, each compound is exposed to a hemolysis assay against red blood cells which determines the concentration required to cause 90% lysis of human red blood cells (EH90). Additionally, each compound is exposed to human primary renal tubule cells to determine the toxicity of each compound against kidney cells. These assays when compared against the known values of AmB against the same cell lines determine the improvement in therapeutic index of each compound.

[2] = system: human erythrocytes (red blood cells); test: Hemolysis assay of human erythrocytes (EH90); assay type: cell-based
Description: as §1, §2

[3] = Wilcock et al., J Am Chem Soc 135:8488 (2013); cited from earlier work
[4] = system: human cells; conditions: in vitro studies, previously reported; cited from earlier work
[5] = Wilcock et al., J Am Chem Soc 135:8488 (2013); cited from earlier work; remark: listed apart in the source
[6] = system: yeast; conditions: in vitro studies, previously reported; cited from earlier work
[7] = system: Candida albicans; test: Broth microdilution MIC against C. albicans; assay type: cell-based
Description: Urea derivatives AmBAU, AmBMU, and AmBCU maintain potent antifungal activity ranging from 0.125 μM to 3 μM against S. cerevisiae. […] AmBCU required 324 μM to cause 90% hemolysis in red blood cells, more than 30× required by AmB. Encouraged by this initial therapeutic index screen the urea series was further tested against the clinically relevant fungal cell line Candida albicans. C. albicans is the most common human fungal infection. AmB inhibits yeast grown of C. albicans at 0.25 μM. Similar to the trend seen with S. cerevisiae, the potency of the urea derivatives increased with increasing amount of cationic character. AmBAU, AmBMU, and AmBCU require 0.25, 0.5, and 1 μM respectively (Table 2).
as §2, with “Additionally, each compound is exposed to human primary renal tubule cells to determine the toxicity of each compound against kidney cells. These assays when compared against the known values of AmB against the same cell lines determine the improvement in therapeutic index of each compound.” left out

[8] = Acute toxicity, single intravenous administration to healthy mice, lethality; assay type: in vivo; conditions: single intravenous 4 mg/kg
Description: FIG. 6 is a graph depicting lethality in healthy mice of single intravenous administration in the doses indicated of AmB, AmBMU, or AmBAU.
In a separate set of experiments, acute toxicity was evaluated by single intravenous administration of 1, 2, 4, 8, 16, 32, or 64 mg/kg AmB or its derivatives to healthy mice, followed by monitoring for lethality. […] AmBAU was drastically less toxic with >50% lethality not being reached until the 64 mg/kg dosage group.

CC(C)/C=C/[C@@H](CC1O[C@](O)(C[C@@H](O)C(C)C)C[C@H](O)[C@H]1C(=O)NCCN)OC1OC(C)C(O)C(N)C1O (stereo partly shown) [AmBAA]
MIC ([1]; Saccharomyces cerevisiae): 0.03 µM (≈ 0.0164 µg/mL)
EH90 red blood cells ([2]; human): 33.96 ± 8.85 µM

COC(=O)[C@H]1C(C[C@H](/C=C/C(C)C)OC2OC(C)C(O)C(N)C2O)O[C@](O)(C[C@@H](O)C(C)C)C[C@@H]1O (stereo partly shown) [AmBME]
MIC ([1]; Saccharomyces cerevisiae): 0.25 µM (≈ 0.13 µg/mL)
hemolysis concentration relative to that seen with AmB [2]: one third
EH90 red blood cells ([2]; human): 30.67 ± 5.38 µM

CC(C)/C=C/[C@@H](CC1O[C@](O)(C[C@@H](O)C(C)C)C[C@H](O)[C@H]1C(=O)NCCn1cncn1)OC1OC(C)C(O)C(N(CCCN)CCCN)C1O (stereo partly shown) [AmBNR2]
MIC ([1]; Saccharomyces cerevisiae): 0.25 µM (≈ 0.178 µg/mL)

CC(C)/C=C/[C@H](O)CC1O[C@](O)(C[C@@H](O)C(C)C)C[C@H](O)[C@H]1C(=O)O (stereo partly shown) [AmdeB]
MIC ([1]; Saccharomyces cerevisiae): > 500 µM
cell-killing activity in yeast assay ([1]; in words): completely abolishes cell-killing activity
cell-killing activity in human cell assay [2]: completely abolishes cell-killing activity
EH90 red blood cells ([2]; human): >500 µM

CC1C=CC=CC=CC=CC=CC=CC=CC(OC2CC(N)C(O)C(C)O2)CC2OC(O)(CC(O)CC(O)C(O)CCC(O)CC(O)CC(=O)OC(C)C(C)C1O)CC(O)C2C(=O)O (stereo not shown) [C2′deOAmB]
ergosterol-binding ability [3]: retains ergosterol-binding ability
toxicity to human cells [4]: not human cells
binding to cholesterol [5]: shows no binding to cholesterol
toxicity to yeast [6]: toxic to yeast

amphotericin B [AmB]
MIC C. albicans [7]: 0.25 µM
MIC [1]: 0.5 µM
lethality [8]: died within seconds
EH90 red blood cells ([2]; amount of compound required to cause 90% hemolysis of human erythrocytes): 10.37 ± 1.17 µM
EH90 red blood cells ([2]; amount of compound required to cause 90% hemolysis of human erythrocytes, listed as Amphotericin B): 10.4 µM
